≈ marks a conversion by molar mass, not a printed value.
Assays:
[1] = Rat intestinal everted sac method: intestinal absorption and hydrolysis to LVFX, alone or with AlCl3; type: in vitro ADME; conditions: for LVFX concentration generated within the small intestine lumen from the ester alone versus LVFX alone / influence of simultaneous administration of AlCl3 on LVFX generated: incubation 60 minutes; for hydrolysis into LVFX: incubation for 60 minutes, small intestine; for drug substance LVFX as a hydrolysis product in the everted intestinal tract: ester
Description: 1. Glucose 200 mg was dissolved in 100 ml of 20 mM HEPES buffer isotonic sodium chloride solution, and pH is regulated at 7.4 with 5N- or 1N-sodium hydroxide by measuring pH (If pH rises, pH is modulated with 1N-hydrochloric acid.).
1. Similarly in the case of independent administration, glucose 200 mg is dissolved in 100 ml of 20 mM HEPES buffer isotonic sodium chloride solution, and pH is regulated at 7.4 with 5N- or 1N-sodium hydroxide by measuring pH (If pH rises, pH is modulated with 1N-hydrochloric acid.).
2. AlCl3 8.0 mg is dissolved (600 μM).
1. A SD type male rat of 8-week old after the birth is purchased and undergoes quarantine habituation for two days. After fasting for 24 hours, a pentobarbital sodium (50 mg/ml) is injected intraperitoneally in the amount (ml) of: rat weight (g)×0.05/50 (that is, weight (g)×0.001).
2. After the rat sleeps completely, it is incised in the abdomen so as to be observed from the stomach till the bladder, and the intestinal tract is removed from the end of the duodenum to the front 5 cm of the cecum.
3. The intestinal tract is cut off every 10 cm carefully, and all portions are washed with physiological saline (both circumference and inside of intestinal).
4. The intestinal tract is made reversed from the stomach side using a stainless steel tube.
5. The cecum side of the reversed intestinal tract is tied with sutures to make bag-shaped.
6. One (1) ml of the HEPES buffer isotonic sodium chloride solution adjusted is put in from the stomach side of the intestinal tract, and the intestinal tract is tied with a suture.
7. The tied intestinal tract is put in the HEPES buffer isotonic sodium chloride solution cooled upon ice, and is preserved.
2. One (1) ml of the drug solution is taken, and it is diluted with 9 ml of the HEPES buffer isotonic sodium chloride solution 10 times (2 mM).
3. A portion (5 ml) of the solution is further diluted with 95 ml of the HEPES buffer isotonic sodium chloride solution to 20 times (100 μM).
1. Thirty (30) ml of the diluted drug solution is taken to a 50-ml Erlenmeyer flask, and the intestinal tract containing a HEPES buffer isotonic sodium chloride solution is put in.
2. […]
3. The intestinal tract is taken out from the drug solution, and, after flushing and wiping off the drug solution attached to the surroundings of the intestinal tract with the physiological saline, all liquid in the intestinal tract is taken out into the Eppendorf tube.
4. The liquid is centrifuged for 5 minutes at 12,000 rpm.
5. 250 μL of a supernatant liquid is taken as a sample.
The method is the same as the HPLC measurement conditions mentioned above in-vivo experiment.

[2] = Blood concentration and AUC of LVFX after oral administration to rats, alone or with a metal-containing preparation; conditions: for blood concentration of LVFX after independent administration of the ester versus independent administration of LVFX / blood concentration of LVFX under concomitant use of polyvalent metal-containing antacid: 0-240 minutes
Description: A cannulation inner tube (Fuji Systems Corporation Ltd., Tokyo) having an internal diameter of 0.5 mm and an outside diameter of 1.0 mm which is used for blood collecting was inserted in the jugular vein of rats on the preceding day before the administration experiment, and the rats were made to abstain from food for 20 hours in an environment where only water can be taken in the animal room.
The polyvalent metal-containing preparation Al(OH)3 was administered in a dose of 30 mg/kg subject.
After administration of the drug, a blood sample was collected through a jugular vein cannulation inner tube in an amount of 200 μL each along the time elapsed (after 0, 15, 30, 45, 60, 90, 120, 180, and 240 minutes) in a 1-mL syringe treated with heparin, the blood was centrifuged for 5 minutes at 12,000 rpm and 4 deg C immediately, and 50 μL of a supernatant was taken to make plasma.
The following procedures were carried out successively: addition of 100 μL of methanol solution containing 10 μmol/L of CPFX as an internal standard substance to 50 μL of plasma, then stirring; centrifuging for 5 minutes at 6,200 rpm; sampling 100 μL of the supernatant with a syringe; filtering the sample solution using Millex (registered trademark)-HV (0.45 micrometer, MILLIPORE, Billerica, Mass., USA). […] The HPLC measurement conditions were as follows; the column used: TSK-GEL ODS-80 Ts (250×4.6 mm, TOSOH Corp., Tokyo), the mobile phase used: 20-mm sodium-phosphate buffer solution (pH 3.0)/acetonitrile=79:21 (v/v). The measurement was carried out using Shimazu SPD-20A Spectrometer detector (Shimadzu, Kyoto) with 280 nm detection wavelength, and flow rate was 1.0 mL/min. The retention times obtained by these conditions were 6.9 minutes for ENX, and 7.2 minutes for CPFX.
The differences of AUCs between 4 groups were computed by performing the multiple comparison by Dunnett's method, and the range of p<0.05 was understood as having a statistical significance.

Enterobacter ATCC 23355 = experiment: MIC against Enterobacter ATCC 23355; type: cell-based; conditions: ATCC23355
Description: (§1) The MIC activity unit in the table is μg/mL.

[3] = tested on: Pseudomonas-aeruginosa ATCC 27853; experiment: MIC (minimum inhibitory concentration) against Pseudomonas-aeruginosa ATCC 27853; type: cell-based
Description: as §1

Escherichia coli NIH JC2 = experiment: MIC against Escherichia coli NIH JC2; type: cell-based; conditions: NIHJC2
Description: as §1

[4] = tested on: Escherichia coli ATCC 25922; experiment: MIC against Escherichia coli ATCC 25922; type: cell-based; conditions: ATCC25922
Description: as §1

[5] = tested on: Pseudomonas-aeruginosa (ATCC27853), Escherichia coli (ATCC25922 and NIH JC2), and Enterobacter (ZTCC23355); experiment: Comparison of antibacterial activities of LVFX and LVFX-EHE over all tested strains; type: cell-based; conditions: all four strains of Table 11

Row | LVFX concentration generated within the small intestine lumen from the ester alone versus LVFX alone [1] | influence of simultaneous administration of AlCl3 on LVFX generated [1] | hydrolysis into LVFX [1] | AUC of LVFX in blood on co-administration with the metal-containing preparation versus LVFX independent administration [2] | blood concentration of LVFX under concomitant use of polyvalent metal-containing antacid [2] | absorption amount with AlCl3 as percent of LVFX administration alone ([1]; LVFX and AlCl3 concomitantly) | MIC (Enterobacter ATCC 23355) | MIC [3] | MIC (Escherichia coli NIH JC2) | MIC [4] | MIC values considered from clinical break points [5] | Compound | blood concentration of LVFX after independent administration of the ester versus independent administration of LVFX [2] | antibacterial activity as compared to that of LVFX ([5]; ratio to LVFX) | drug substance LVFX as a hydrolysis product in the everted intestinal tract ([1]; concomitant administration with aluminum chloride) | drug substance LVFX as a hydrolysis product in the everted intestinal tract ([1]; independent administration alone) | peak of LVFX in blood derived from the ester ([2]; ester administered alone) | peak of LVFX in blood derived from the ester ([2]; ester co-administered with Al(OH)3 30 mg/kg)
1 | no significant difference | no influence | completely hydrolyzed | no significant difference | not influenced |  |  |  |  |  |  | CC(C)OC(=O)OC(C)OC(=O)c1cn2c3c(c(N4CCN(C)CC4)c(F)cc3c1=O)OC[C@@H]2C (mixture of isomers) [LVFX-iPrHE, Levofloxacin isopropoxycarbonyl 1-ethyl hemiacetal-type ester] | A significant difference was not found |  |  |  |  | 
2 |  |  |  |  |  | about 54% | ≤ 0.065 µg/mL | 0.5 µg/mL (≈ 1.38 µM) | ≤ 0.065 µg/mL | ≤ 0.065 µg/mL |  | C[C@H]1COc2c(N3CCN(C)CC3)c(F)cc3c(=O)c(C(=O)O)cn1c23 [LVFX, (3S)-9-fluoro-3-methyl-10-(4-methyl-1-piperazinyl)-7-oxo-2,3-dihydro-7H-pyrid [1,2,3-de] [1,4] benzoxazine-6-carboxylic acid, reference compound] |  |  |  |  |  | 
3 | no significant difference | no influence | completely hydrolyzed | no significant difference | not influenced |  | 2 µg/mL (≈ 4.19 µM) | 8 µg/mL (≈ 16.8 µM) | 0.5 µg/mL (≈ 1.05 µM) | 0.5 µg/mL (≈ 1.05 µM) | non-sensitive to any bacterial strains | CCOC(=O)OC(C)OC(=O)c1cn2c3c(c(N4CCN(C)CC4)c(F)cc3c1=O)OC[C@@H]2C (stereo partly drawn) [LVFX-EHE, Levofloxacin ethoxycarbonyl-1-ethyl hemiacetal-type ester] | Significant differences were not observed | 1/10 |  |  |  | 
4 |  |  |  |  |  |  |  |  |  |  |  | COC(=O)c1cn2c3c(c(N4CCN(C)CC4)c(F)cc3c1=O)OC[C@@H]2C [LVFX-M, (S)-Methyl-9-fluoro-3-methyl-10-(4-methylpiperazine-1-yl)-7-oxo-3,7-dihydro-2H-[1,4] oxazolino [2,3,4-ij] quinolin-6-carboxylate, reference compound] |  |  | not detected | not detected | no peak was detected | no peak was detected

— patent US20160326165A1, “ALKOXYCARBONYL HEMIACETAL-TYPE ESTER PRODRUG OF PYRIDONE CARBOXYLIC ACID ANTIBACTERIAL DRUG” (KINKI UNIVERSITY, priority 2013, published 2016)
